Reference: patent publication US11912691B2, “Tocotrienols derivates, methods and uses thereof” (GLOBAL SCIENTIFIC, priority 2020, dated 2024)
“Also recorded” adds a separate entry of the source. Read-outs that look alike come from different tables or passages of the source. Values belong to the molecule of their own block, whether it stands above or below them.

What was measured:
[1] = Chemical stability in a cosmetic formulation, accelerated aging test (45° C., 3 months); conditions: for % of the Compound after 3 Months: 0.1% m/m in cosmetic formulation, oven at 45° C., HPLC; for Stability in the cosmetic formulation (in words): 45° C., ferulyl compound also in cold storage; for % of the Compound after 3 Months / Stability in the cosmetic formulation (in words): 3 months
Experimental: In an embodiment, the chemical stability of the modified molecules was evaluated in accelerated degradation tests. For this purpose, the test molecules were formulated in a cosmetic relevant formulation and its degradations were assessed for a period of 3 months.
In an embodiment, the cosmetic formulation may comprise water, jojoba seed oil, butylene glycol, squalane, sodium hyaluronate, cetearyl alcohol and a carbomer.
In an embodiment, test molecules were added to the cosmetic formulation at 0.1% m/m level, thoroughly homogenized to ensure uniform dispersion and stored in closed glass bottles in an oven at 45° C. for 3 months. In order to evaluate homogeneity and stability, 3 samples were collected from random positions immediately after preparation and at each time point evaluated. The quantification of the test molecules was performed by HPLC.
In an embodiment, the preparation of the mixtures for evaluation of the stability was performed according to the following experimental protocol. The mass of compound was weighed and dissolved in 2-(2-ethoxyethoxy)ethanol (also weighed) and added to a known mass of moisturizer product. The mixture was homogenized, and 3 samples were collected to confirm homogenous distribution and initial concentration of modified molecules. The mixtures were then stored in an oven at 45° C. for 3 months (Table IV).
In an embodiment, the stability of the test molecules in the cosmetic formulation was determined. The test mixtures were sampled in triplicate from random zones. The samples were prepared for analysis by solubilizing them in acetonitrile and the quantification of the modified and non-modified tocopherol and tocotrienol molecules was performed by HPLC. The % of the initial compounds is described in Table IV.

[2] = for Rank of the nicotinic acid level in the permeate solutions: within molecules without a linker / within molecules with a linker
Experimental: In an embodiment, the penetration into human skin and the conversion of the modified tocotrienols and modified α-tocotrienols with linkers molecules in the human skin were evaluated by permeation experiments using Franz diffusion cells. The conversion profile was evaluated and quantified by measuring nicotinic acid or nicotinyl alcohol in the permeate solutions.
In an embodiment, the skin permeation of the modified compounds was assessed. The permeation tests were performed with full thickness human skin. These samples were obtained at a local hospital, from healthy donors undergoing cosmetic surgery. The excised skin was stored in a PBS solution containing 10% antibiotic and maintained at 4° C., until further processing in the laboratory. When the skin sample was received, the underlying fat tissue was removed and discarded. The remaining skin (dermis and epidermis layers) was cut into pieces of approximately 1.5×1.5 cm. When the permeation experiments were executed with fresh skin, the samples were immediately used. Otherwise, the pre-cut skin samples were frozen at −80° C. and stored for further use. When reclaiming the frozen skin samples, the samples were removed from storage and thawed to room temperature for 1 hour before further manipulation.
The permeation experiments were performed in Franz diffusion cells. These diffusion cells are constituted by a donor compartment, where the formulation containing the permeate molecule is placed, and a receptor compartment containing the receptor fluid where the permeate molecule is collected and accumulated in time. The skin sample is placed between the donor and receptor compartments and is also equipped with a sampling access that allows for the collection of samples (a certain volume of the receptor fluid) without requiring the disassembly of the cell and therefore allows for the permeation experiment to continue (FIG. 3).
At the start of the experiment, the receptor compartment is filled with the receptor fluid, the skin sample is placed in place with care so as to not form air bubbles underneath. The donor receptor is positioned in place and clamped. The assembly is then placed in the thermostatic (37° C.) bath for 30 min to allow temperature equilibration. After the equilibration time, the level of the receptor fluid is adjusted as necessary. The receptor compartment is equipped with a magnetic mixer, ensuring the solution homogeneity during the course of the permeation experiment.
In an embodiment, the permeate solutions are monitored for the presence of nicotinic acid released from the modified tocopherol and tocotrienols molecules. The amount of nicotinic acid is quantified by HPLC using an ion pairing method. The concentration of nicotinic acid is calculated from a standard calibration curve of known nicotinic acid concentration solutions measured in the same conditions. The HPLC analysis is performed on a Knauer chromatograph consisting of 3 modules: Smartline manager 5000, Smartline pump 1000 and Smartline UV Detector 2600. The UV detector is fitted with a photodiode array (PDA) which allows for the continuous monitoring from 190-450 nm. The online chromatograms are monitored at 254 nm. The eluent comprises an ion-pairing eluent (50 mM of tetrabutylammonium hydroxide (TBAOH), pH corrected to 7.4 with hydrogenphosphate dibasic ([…])) containing 10% of acetonitrile at a flow of 1 mL/min and the column used is an Atlantis T3 4.6×250 mm (with guard column of same type 4.6×20 mm) at 30° C.
In an embodiment, the skin permeation experiments are performed with formulations of different concentrations of modified tocotrienol and tocopherol molecules. The modified molecules are dissolved at concentrations of 5% and 10% m/m in a mixture of equal volumes of 2-(2-ethoxyethoxy)ethanol and propylene glycol and 150 μl of these solutions are applied on the skin samples.

[3] = modified α-tocotrienols with linkers, donor solution 10% m/m, 24 hours
[4] = modified α-tocotrienols with linkers, donor solution 10% m/m, 48 hours
[5] = donor solution 5% m/m, 48 hours, human skin, Franz cell
[6] = donor solution 10% m/m, 48 hours, human skin, Franz cell

- Concentration of nicotinic acid in the permeate solution [2, 3]: 1190 ng/mL
- Concentration of nicotinic acid in the permeate solution [2, 4]: 2960 ng/mL
- % of the Compound after 3 Months [1]: 0%
SMILES: COc1cc(/C=C/C(=O)Oc2c(C)c(C)c3c(c2C)CCC(C)(CC/C=C(\C)CC/C=C(\C)CCC=C(C)C)O3)ccc1OC(=O)c1cccnc1 (stereo not drawn) [α-tocotrienyl ferulyl nicotinate]
- Stability in the cosmetic formulation (in words) [1]: unstable even in cold storage conditions; also recorded: not stable

- Concentration of nicotinic acid in the permeate solution [2, 3]: 180 ng/mL
- Concentration of nicotinic acid in the permeate solution [2, 4]: 380 ng/mL
- % of the Compound after 3 Months [1]: ≥95%
- Stability in the cosmetic formulation (in words) [1]: excellent stability
SMILES: CC(C)=CCC/C(C)=C/CC/C(C)=C/CCC1(C)CCc2c(C)c(OC(=O)CNC(=O)c3cccnc3)c(C)c(C)c2O1 (stereo not drawn) [α-tocotrienyl glycinyl nicotinate]

- Rate of conversion into the parent molecules relative to the other modified tocotrienols ([2]; human skin): higher rate
- Concentration of nicotinic acid in the permeate solution [2, 3]: 3020 ng/mL
- Concentration of nicotinic acid in the permeate solution [2, 4]: 8180 ng/mL
- Rank of the nicotinic acid level in the permeate solutions [2]: highest level
- % of the Compound after 3 Months [1]: ≥95%
- Stability in the cosmetic formulation (in words) [1]: excellent stability
SMILES: CC(C)=CCC/C(C)=C/CC/C(C)=C/CCC1(C)CCc2c(C)c(OC(=O)COC(=O)c3cccnc3)c(C)c(C)c2O1 (stereo not drawn) [α-tocotrienyl glycolyl nicotinate]

- Concentration of nicotinic acid in the permeate solution ([2]; donor solution 5% m/m, 24 hours, human skin, Franz cell): 320 ng/mL
- Concentration of nicotinic acid in the permeate solution ([2]; donor solution 5% m/m, 33 hours, human skin, Franz cell): 540 ng/mL
- Concentration of nicotinic acid in the permeate solution [2, 5]: 890 ng/mL
- Concentration of nicotinic acid in the permeate solution [2, 6]: 2830 ng/mL
- Rate of conversion into the parent molecules relative to the other modified tocotrienols ([2]; human skin): higher rate
- Release of nicotinic acid relative to α-tocopheryl nicotinate ([2]; human skin, Franz cell): faster
- Release of nicotinic acid relative to γ-tocotrienyl nicotinate or δ-tocotrienyl nicotinate ([2]; human skin, Franz cell): three times faster
- Rank of the nicotinic acid level in the permeate solutions [2]: highest level
- % of the Compound after 3 Months [1]: ≥95%
SMILES: CC(C)=CCC/C(C)=C/CC/C(C)=C/CCC1(C)CCc2c(C)c(OC(=O)c3cccnc3)c(C)c(C)c2O1 (stereo not drawn) [α-tocotrienyl nicotinate]

- Remaining fraction of the initial mass after 3 months of accelerated aging [1]: > 95%
- % of the Compound after 3 Months [1]: ≥95%
SMILES: CC(C)=CCCC(C)=CCCC(C)=CCCC1(C)CCc2c(C)c(OC(=O)CCC(=O)OCc3cccnc3)c(C)c(C)c2O1 (stereo not drawn) [α-tocotrienyl nicotinyl succinate]

- Concentration of nicotinic acid in the permeate solution [2, 5]: 90 ng/mL
- Concentration of nicotinic acid in the permeate solution [2, 6]: 700 ng/mL
- % of the Compound after 3 Months [1]: ≥95%
SMILES: CC(C)=CCC/C(C)=C/CC/C(C)=C/CCC1(C)CCc2cc(OC(=O)c3cccnc3)c(C)c(C)c2O1 (stereo not shown) [γ-tocotrienyl nicotinate]

Second part, the molecule before the results:

SMILES: Cc1c(C)c2c(c(C)c1O)CC[C@@](C)(CCC[C@H](C)CCC[C@H](C)CCCC(C)C)O2 [α-tocopherol, reference compound]
- % of the Compound after 3 Months [1]: 44%

SMILES: Cc1c(C)c2c(c(C)c1OC(=O)c1cccnc1)CC[C@@](C)(CCC[C@H](C)CCC[C@H](C)CCCC(C)C)O2 [α-tocopheryl nicotinate, reference compound]
- % of the Compound after 3 Months [1]: ≥95%

SMILES: CC(C)=CCC/C(C)=C/CC/C(C)=C/CC[C@]1(C)CCc2c(C)c(O)c(C)c(C)c2O1 [α-tocotrienol, reference compound]
- % of the Compound after 3 Months [1]: 53%

SMILES: CC(C)=CCC/C(C)=C/CC/C(C)=C/CC[C@]1(C)CCc2cc(O)c(C)c(C)c2O1 [γ-tocotrienol, reference compound]
- % of the Compound after 3 Months [1]: 20%

SMILES: CC(C)=CCC/C(C)=C/CC/C(C)=C/CC[C@]1(C)CCc2cc(O)cc(C)c2O1 [δ-tocotrienol, reference compound]
- % of the Compound after 3 Months [1]: 57%

SMILES: CC(C)=CCCC(C)=CCCC(C)=CCCC1(C)CCc2cc(OC(=O)c3cccnc3)cc(C)c2O1 (stereo not shown) [δ-tocotrienyl nicotinate]
- % of the Compound after 3 Months [1]: ≥95%
